{"source": "ChEMBL document CHEMBL1201862", "about": "“PubChem BioAssay data set” (2004)", "experiment_in_all_cases": "inhibition of tumour cell growth, NCI panel, 48 h", "key": {"[1]": {"tested_on": "UACC-62"}, "[2]": {"tested_on": "T47D"}, "[3]": {"tested_on": "UACC-257"}, "[4]": {"tested_on": "PC-3"}, "[5]": {"tested_on": "MCF7"}, "[6]": {"tested_on": "Malme-3M"}, "[7]": {"tested_on": "A498"}, "[8]": {"tested_on": "SN12C"}, "[9]": {"tested_on": "SK-OV-3"}, "[10]": {"tested_on": "KM12"}, "[11]": {"tested_on": "786-0"}, "[12]": {"tested_on": "MDA-MB-231"}, "[13]": {"tested_on": "SF-268"}, "[14]": {"tested_on": "K562"}, "[15]": {"tested_on": "HCT-15"}, "[16]": {"tested_on": "IGROV-1"}, "[17]": {"tested_on": "CAKI-1"}, "[18]": {"tested_on": "HCC 2998"}, "[19]": {"tested_on": "TK-10"}, "[20]": {"tested_on": "NCI-H23"}, "[21]": {"tested_on": "Hs-578T"}, "[22]": {"tested_on": "MDA-N"}, "[23]": {"tested_on": "SK-MEL-2"}, "[24]": {"tested_on": "NCI-H460"}, "[25]": {"tested_on": "MOLT-4"}, "[26]": {"tested_on": "ACHN"}, "[27]": {"tested_on": "SNB-19"}, "[28]": {"tested_on": "SR"}, "[29]": {"tested_on": "SK-MEL-5"}, "[30]": {"tested_on": "OVCAR-5"}, "[31]": {"tested_on": "SF-539"}, "[32]": {"tested_on": "SF-295"}, "[33]": {"tested_on": "CCRF-CEM"}, "[34]": {"tested_on": "U-251"}, "[35]": {"tested_on": "HT-29"}, "[36]": {"tested_on": "HCT-116"}, "[37]": {"tested_on": "RPMI-8226"}, "[38]": {"tested_on": "M14"}, "[39]": {"tested_on": "UO-31"}, "[40]": {"tested_on": "OVCAR-8"}, "[41]": {"tested_on": "A549"}, "[42]": {"tested_on": "SK-MEL-28"}, "[43]": {"tested_on": "LOX IMVI"}, "[44]": {"tested_on": "DU-145"}, "[45]": {"tested_on": "EKVX"}, "[46]": {"tested_on": "COLO 205"}, "[47]": {"tested_on": "HOP-62"}, "[48]": {"tested_on": "SW-620"}, "[49]": {"tested_on": "HL-60"}, "[50]": {"tested_on": "SNB-75"}, "[51]": {"tested_on": "NCI/ADR-RES"}, "[52]": {"tested_on": "NCI-H226"}, "[53]": {"tested_on": "MDA-MB-435"}, "[54]": {"tested_on": "NCI-H522"}, "[55]": {"tested_on": "OVCAR-4"}, "[56]": {"tested_on": "OVCAR-3"}, "[57]": {"tested_on": "HOP-92"}, "[58]": {"tested_on": "RXF 393"}}, "note": "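Following 48 hours of exposure in 96-well plates, responses at five concentrations were used to interpolate endpoints linearly. GI50 marks 50% less growth.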 The source made the active and inactive calls. Cut-off read from the data, not from the text of the source: active = GI50 up to about 1.1 µM and inactive = higher."}
{"smiles": "C=CCOC(=O)Cn1ccc(=O)[nH]c1=O", "values": [{"measurement": "GI50", "setting": "[1]", "value": "> 100 µM (inactive)"}, {"measurement": "GI50", "setting": "[2]", "value": "> 100 µM (inactive)"}, {"measurement": "GI50", "setting": "[3]", "value": "> 100 µM (inactive)"}, {"measurement": "GI50", "setting": "[4]", "value": "> 100 µM (inactive)"}, {"measurement": "GI50", "setting": "[5]", "value": "> 100 µM (inactive)"}, {"measurement": "GI50", "setting": "[6]", "value": "> 100 µM (inactive)"}, {"measurement": "GI50", "setting": "[7]", "value": "> 100 µM (inactive)"}, {"measurement": "GI50", "setting": "[8]", "value": "> 100 µM (inactive)"}, {"measurement": "GI50", "setting": "[9]", "value": "> 100 µM (inactive)"}, {"measurement": "GI50", "setting": "[10]", "value": "> 100 µM (inactive)"}, {"measurement": "GI50", "setting": "[11]", "value": "> 100 µM (inactive)"}, {"measurement": "GI50", "setting": "[12]", "value": "> 100 µM (inactive)"}, {"measurement": "GI50", "setting": "[13]", "value": "> 100 µM (inactive)"}, {"measurement": "GI50", "setting": "[14]", "value": "> 100 µM (inactive)"}, {"measurement": "GI50", "setting": "[15]", "value": "> 100", "unit": "µM"}, {"measurement": "GI50", "setting": "[16]", "value": "> 100 µM (inactive)"}, {"measurement": "GI50", "setting": "[17]", "value": "> 100 µM (inactive)"}, {"measurement": "GI50", "setting": "[18]", "value": "> 100 µM (inactive)"}, {"measurement": "GI50", "setting": "[19]", "value": "> 100 µM (inactive)"}, {"measurement": "GI50", "setting": "[20]", "value": "> 100 µM (inactive)"}, {"measurement": "GI50", "setting": "[21]", "value": "> 100 µM (inactive)"}, {"measurement": "GI50", "setting": "[22]", "value": "> 100 µM (inactive)"}, {"measurement": "GI50", "setting": "[23]", "value": "> 100 µM (inactive)"}, {"measurement": "GI50", "setting": "[24]", "value": "> 100 µM (inactive)"}, {"measurement": "GI50", "setting": "[25]", "value": "> 100 µM (inactive)"}, {"measurement": "GI50", "setting": "[26]", "value": "> 100 µM (inactive)"}, {"measurement": "GI50", "setting": "[27]", "value": "> 100 µM (inactive)"}, {"measurement": "GI50", "setting": "[28]", "value": "> 100 µM (inactive)"}, {"measurement": "GI50", "setting": "[29]", "value": "> 100 µM (inactive)"}, {"measurement": "GI50", "setting": "[30]", "value": "> 100 µM (inactive)"}, {"measurement": "GI50", "setting": "[31]", "value": "> 100 µM (inactive)"}, {"measurement": "GI50", "setting": "[32]", "value": "> 100 µM (inactive)"}, {"measurement": "GI50", "setting": "[33]", "value": "> 100 µM (inactive)"}, {"measurement": "GI50", "setting": "[34]", "value": "> 100 µM (inactive)"}, {"measurement": "GI50", "setting": "[35]", "value": "> 100 µM (inactive)"}, {"measurement": "GI50", "setting": "[36]", "value": "> 100 µM (inactive)"}, {"measurement": "GI50", "setting": "[37]", "value": "> 100 µM (inactive)"}, {"measurement": "GI50", "setting": "[38]", "value": "> 100 µM (inactive)"}, {"measurement": "GI50", "setting": "[39]", "value": "> 100 µM (inactive)"}, {"measurement": "GI50", "setting": "[40]", "value": "> 100 µM (inactive)"}, {"measurement": "GI50", "setting": "[41]", "value": "> 100 µM (inactive)"}, {"measurement": "GI50", "setting": "[42]", "value": "> 100 µM (inactive)"}, {"measurement": "GI50", "setting": "[43]", "value": "> 100 µM (inactive)"}, {"measurement": "GI50", "setting": "[44]", "value": "> 100 µM (inactive)"}, {"measurement": "GI50", "setting": "[45]", "value": "> 100 µM (inactive)"}, {"measurement": "GI50", "setting": "[46]", "value": "> 100 µM (inactive)"}, {"measurement": "GI50", "setting": "[47]", "value": "> 100 µM (inactive)"}, {"measurement": "GI50", "setting": "[48]", "value": "> 100 µM (inactive)"}, {"measurement": "GI50", "setting": "[49]", "value": "> 100 µM (inactive)"}, {"measurement": "GI50", "setting": "[50]", "value": "> 100 µM (inactive)"}, {"measurement": "GI50", "setting": "[51]", "value": "> 100 µM (inactive)"}, {"measurement": "GI50", "setting": "[52]", "value": "> 100 µM (inactive)"}]}
{"smiles": "CC1(C)c2ccccc2C(O)C12CCC(=O)CC2", "note": "(centres undefined)", "values": [{"measurement": "GI50", "setting": "[1]", "value": "> 100 µM (inactive)"}, {"measurement": "GI50", "setting": "[2]", "value": "> 100 µM (inactive)"}, {"measurement": "GI50", "setting": "[3]", "value": "> 100 µM (inactive)"}, {"measurement": "GI50", "setting": "[4]", "value": "> 100 µM (inactive)"}, {"measurement": "GI50", "setting": "[6]", "value": "> 100 µM (inactive)"}, {"measurement": "GI50", "setting": "[7]", "value": "> 100 µM (inactive)"}, {"measurement": "GI50", "setting": "[8]", "value": "> 100 µM (inactive)"}, {"measurement": "GI50", "setting": "[53]", "value": "> 100 µM (inactive)"}, {"measurement": "GI50", "setting": "[9]", "value": "> 100 µM (inactive)"}, {"measurement": "GI50", "setting": "[10]", "value": "> 100 µM (inactive)"}, {"measurement": "GI50", "setting": "[11]", "value": "> 100 µM (inactive)"}, {"measurement": "GI50", "setting": "[12]", "value": "> 100 µM (inactive)"}, {"measurement": "GI50", "setting": "[13]", "value": "> 100 µM (inactive)"}, {"measurement": "GI50", "setting": "[14]", "value": "> 100 µM (inactive)"}, {"measurement": "GI50", "setting": "[15]", "value": "> 100", "unit": "µM"}, {"measurement": "GI50", "setting": "[16]", "value": "> 100 µM (inactive)"}, {"measurement": "GI50", "setting": "[18]", "value": "> 100 µM (inactive)"}, {"measurement": "GI50", "setting": "[19]", "value": "> 100 µM (inactive)"}, {"measurement": "GI50", "setting": "[20]", "value": "> 100 µM (inactive)"}, {"measurement": "GI50", "setting": "[54]", "value": "> 100 µM (inactive)"}, {"measurement": "GI50", "setting": "[21]", "value": "> 100 µM (inactive)"}, {"measurement": "GI50", "setting": "[22]", "value": "> 100 µM (inactive)"}, {"measurement": "GI50", "setting": "[23]", "value": "> 100 µM (inactive)"}, {"measurement": "GI50", "setting": "[24]", "value": "> 100 µM (inactive)"}, {"measurement": "GI50", "setting": "[26]", "value": "> 100 µM (inactive)"}, {"measurement": "GI50", "setting": "[27]", "value": "> 100 µM (inactive)"}, {"measurement": "GI50", "setting": "[28]", "value": "> 100 µM (inactive)"}, {"measurement": "GI50", "setting": "[29]", "value": "> 100 µM (inactive)"}, {"measurement": "GI50", "setting": "[55]", "value": "> 100 µM (inactive)"}, {"measurement": "GI50", "setting": "[30]", "value": "> 100 µM (inactive)"}, {"measurement": "GI50", "setting": "[31]", "value": "> 100 µM (inactive)"}, {"measurement": "GI50", "setting": "[32]", "value": "> 100 µM (inactive)"}, {"measurement": "GI50", "setting": "[56]", "value": "> 100 µM (inactive)"}, {"measurement": "GI50", "setting": "[34]", "value": "> 100 µM (inactive)"}, {"measurement": "GI50", "setting": "[35]", "value": "> 100 µM (inactive)"}, {"measurement": "GI50", "setting": "[36]", "value": "9.2 µM (inactive)"}, {"measurement": "GI50", "setting": "[37]", "value": "> 100 µM (inactive)"}, {"measurement": "GI50", "setting": "[38]", "value": "> 100 µM (inactive)"}, {"measurement": "GI50", "setting": "[39]", "value": "> 100 µM (inactive)"}, {"measurement": "GI50", "setting": "[41]", "value": "34 µM (inactive)"}, {"measurement": "GI50", "setting": "[42]", "value": "> 100 µM (inactive)"}, {"measurement": "GI50", "setting": "[43]", "value": "> 100 µM (inactive)"}, {"measurement": "GI50", "setting": "[44]", "value": "> 100 µM (inactive)"}, {"measurement": "GI50", "setting": "[45]", "value": "> 100 µM (inactive)"}, {"measurement": "GI50", "setting": "[46]", "value": "> 100 µM (inactive)"}, {"measurement": "GI50", "setting": "[47]", "value": "> 100 µM (inactive)"}, {"measurement": "GI50", "setting": "[48]", "value": "> 100 µM (inactive)"}, {"measurement": "GI50", "setting": "[49]", "value": "> 100 µM (inactive)"}, {"measurement": "GI50", "setting": "[57]", "value": "> 100 µM (inactive)"}, {"measurement": "GI50", "setting": "[51]", "value": "> 100 µM (inactive)"}, {"measurement": "GI50", "setting": "[52]", "value": "> 100 µM (inactive)"}, {"measurement": "GI50", "setting": "[58]", "value": "14.5 µM (inactive)"}]}
